{"source": "patent US6472433B2", "about": "“Method for treatment of inflammation with R-NSAIDS” (Loma Linda University Medical Center, priority 1999, dated 2002)", "key": {"[1]": {"test_system": "carrageenan-induced paw edema", "experiment": "Carrageenan paw test (hind paw edema, plethysmometer)", "type": "in vivo, male Long Evans derived rats", "settings": "for Result (Reduction of Edema): 1 h before carrageenan, paw volume 3 h after injection", "description": "In this test, the test compound is administered to several rats. Thereafter, a paw on each rat is injected with a solution of carrageenan in order to induce edema in the paw as a measure of inflammation. After three hours, the volume of the paw is measured using a plethysmometer. Reduction of edema by 30% or more, as compared to a control group which was not given the test compound, is considered indicative of anti-inflammatory activity.\nThis very pure form of R-flurbiprofen, was tested for anti-inflammatory activity by the carrageenan paw test. Seven groups of eight male Long Evans derived rats weighing 150±20 grams were fasted overnight. One hour after oral administration a suspension of the test substance in 2% Tween 80, as documented in Table 1 below, the right hind paw of each rat was injected intraplantarly with 0.1 ml of a 1% suspension of carrageenan. Three hours after injection, the hind paw volume was measured using a plethysmometer and recorded."}, "[2]": {"settings": "humans; cited from earlier work"}, "[3]": {"test_system": "carrageenan-induced paw edema", "settings": "cited from earlier work; for reduction of edema: dosage of 0.3 mg/kg, enantiomeric purity not disclosed"}}, "data": [{"compound": "CC(=O)Oc1ccccc1C(=O)O", "note": "[Aspirin, reference compound]", "values": [{"measurement": "Anti-Inflammatory Activity", "setting": "[1]; 150 mg/kg oral", "value": "Yes (Reduction of edema by 30% or more, as compared to a control group which was not given the test compound, is considered indicative of anti-inflammatory activity)"}, {"measurement": "Result (Reduction of Edema)", "setting": "[1]; 150 mg/kg oral", "value": 42, "unit": "%"}]}, {"compound": "CCc1cccc2c3c([nH]c12)[C@@](CC)(CC(=O)O)OCC3", "note": "[R-etodolac]", "values": [{"measurement": "S-enantiomer in circulation at steady state (formed by inversion of the R-enantiomer)", "setting": "[2]", "value": 0, "unit": "%"}]}, {"compound": "C[C@@H](C(=O)O)c1ccc(-c2ccccc2)c(F)c1", "note": "[R-Flurbiprofen, R-flurbiprofen]", "values": [{"measurement": "Anti-Inflammatory Activity", "setting": "[1]; 5 mg/kg oral", "value": "Yes (Reduction of edema by 30% or more, as compared to a control group which was not given the test compound, is considered indicative of anti-inflammatory activity)"}, {"measurement": "Result (Reduction of Edema)", "setting": "[1]; 5 mg/kg oral", "value": 30, "unit": "%"}, {"measurement": "Anti-Inflammatory Activity", "setting": "[1]; 10 mg/kg oral", "value": "Yes (Reduction of edema by 30% or more, as compared to a control group which was not given the test compound, is considered indicative of anti-inflammatory activity)"}, {"measurement": "Result (Reduction of Edema)", "setting": "[1]; 10 mg/kg oral", "value": 41, "unit": "%"}, {"measurement": "Anti-Inflammatory Activity", "setting": "[1]; 20 mg/kg oral", "value": "Yes (Reduction of edema by 30% or more, as compared to a control group which was not given the test compound, is considered indicative of anti-inflammatory activity)"}, {"measurement": "Result (Reduction of Edema)", "setting": "[1]; 20 mg/kg oral", "value": 47, "unit": "%"}, {"measurement": "Anti-Inflammatory Activity", "setting": "[1]; 40 mg/kg oral", "value": "Yes (Reduction of edema by 30% or more, as compared to a control group which was not given the test compound, is considered indicative of anti-inflammatory activity)"}, {"measurement": "Result (Reduction of Edema)", "setting": "[1]; 40 mg/kg oral", "value": 51, "unit": "%"}, {"measurement": "S-enantiomer in circulation at steady state (formed by inversion of the R-enantiomer)", "setting": "[2]", "value": 1.5, "unit": "%"}, {"measurement": "reduction of edema", "setting": "[3]", "value": 18, "unit": "%"}, {"measurement": "reduction in inflammation", "setting": "[3]; highest dose, 2.5 mg/kg (not at 0.1, 0.3, 1 mg/kg)", "value": "statistically significant reduction in inflammation"}]}, {"compound": "C[C@H](C(=O)O)c1ccc(-c2ccccc2)c(F)c1", "note": "[S-flurbiprofen, reference compound]", "values": [{"measurement": "reduction of edema", "setting": "[3]", "value": 64, "unit": "%"}]}, {"compound": "O=C(c1ccccc1)c1ccc2n1CC[C@H]2C(=O)O", "note": "[R-ketorolac]", "values": [{"measurement": "S-enantiomer in circulation at steady state (formed by inversion of the R-enantiomer)", "setting": "[2]", "value": 6, "unit": "%"}]}]}
